pEC50: −log10 of the molar value. Where two headings read alike, the source gives them in different places. Starred links: 1 amine or outer side, 2 acyl side, 3 side chain; linkers in the order of their positions; H or OH if unused. Non-standard residues stand in square brackets, D forms with d. Residues, ends and D or L forms follow the SMILES beside them. Groups on a side chain read outwards from the residue. *: point of attachment. C20 diacid = O=C(O)CCCCCCCCCCCCCCCCCCC(=O)*; C18 diacid = O=C(O)CCCCCCCCCCCCCCCCC(=O)*; γGlu = O=C(O)[C@H](CCC(=O)[*:2])N[*:1]; αMeF = C[C@](N)(Cc1ccccc1)C(=O)O; AEEA = NCCOCCOCC(=O)O; Aib = CC(C)(N)C(=O)O
How the values were obtained:
[1] = biological target: human GLP-1 receptor (hGLP-1R) (Homo sapiens, UniProt P43220); assay: cAMP production (HTRF) in CHO cells expressing hGLP-1R; type: cell-based; parameters: expressed in transfected cells; conditions: for pEC50: cAMP in CHO hGLP-1R cells, geometric mean, read-out: hGLP-1R EC50; for % Relative Potency Ratio: % GLP-1R activity relative to GLP-1 / % GlucR activity relative to glucagon
Summary of the method: (§1)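 Read-out: HTRF cAMP (anti-cAMP cryptate donor, cAMP-d2 acceptor in conjugate/lysis buffer), converted to % Delta F and fitted by 4-parameter logistic for EC50. Cell densities were 1×10^5 cells/mL (hGLP-1R) or 2×10^5 cells/mL (hGCGR). Stimulation lasted 30 min at room temperature.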

[2] = biological target: human glucagon receptor (hGCGR) (Homo sapiens, UniProt P47871); assay: cAMP production (HTRF) in CHO cells expressing hGCGR; type: cell-based; parameters: expressed in transfected cells; conditions: cAMP in CHO hGCGR cells, geometric mean, read-out: hGluc-R EC50
Summary of the method: as §1

[3] = Table 6, peptides modified at position 17
[4] = Table 7, peptides modified at position 20

Chain of human GLP-1 receptor (hGLP-1R) (P43220 24-463): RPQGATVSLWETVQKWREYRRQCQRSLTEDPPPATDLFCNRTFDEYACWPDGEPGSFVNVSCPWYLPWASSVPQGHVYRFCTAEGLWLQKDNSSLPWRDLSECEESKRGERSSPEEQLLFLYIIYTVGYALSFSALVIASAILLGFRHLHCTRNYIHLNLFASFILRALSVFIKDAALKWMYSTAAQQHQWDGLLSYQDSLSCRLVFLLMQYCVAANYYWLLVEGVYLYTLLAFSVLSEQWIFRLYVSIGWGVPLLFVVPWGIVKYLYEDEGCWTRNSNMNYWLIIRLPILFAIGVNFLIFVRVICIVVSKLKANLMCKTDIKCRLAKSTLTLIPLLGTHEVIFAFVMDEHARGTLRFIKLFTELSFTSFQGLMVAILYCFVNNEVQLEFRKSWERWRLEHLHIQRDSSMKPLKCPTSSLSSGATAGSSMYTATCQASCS
Chain of human glucagon receptor (hGCGR) (P47871 26-477): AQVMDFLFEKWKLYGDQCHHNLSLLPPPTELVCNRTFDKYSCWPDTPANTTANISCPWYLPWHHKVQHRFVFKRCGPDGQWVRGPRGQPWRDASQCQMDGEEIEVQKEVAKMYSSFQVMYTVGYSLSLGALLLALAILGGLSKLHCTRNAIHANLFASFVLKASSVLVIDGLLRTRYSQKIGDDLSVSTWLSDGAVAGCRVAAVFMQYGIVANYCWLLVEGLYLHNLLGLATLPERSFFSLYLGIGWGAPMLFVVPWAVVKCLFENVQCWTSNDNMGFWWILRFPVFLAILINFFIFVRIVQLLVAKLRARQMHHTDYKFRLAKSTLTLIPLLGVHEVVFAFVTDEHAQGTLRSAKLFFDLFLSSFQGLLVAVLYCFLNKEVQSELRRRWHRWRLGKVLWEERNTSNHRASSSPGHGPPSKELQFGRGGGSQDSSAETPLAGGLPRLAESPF

Compound | pEC50 [1, 3] | % Relative Potency Ratio ([1]; Table 6) | pEC50 [2, 3] | pEC50 [1, 4] | % Relative Potency Ratio ([1]; Table 7) | pEC50 [2, 4]
CC(C)C[C@H](NC(=O)[C@H](CC(C)C)NC(=O)[C@H](Cc1c[nH]c2ccccc12)NC(=O)[C@H](CCCNC(=N)N)NC(=O)[C@@H](NC(=O)[C@H](Cc1ccccc1)NC(=O)[C@H](CC(=O)O)NC(=O)[C@H](CCC(N)=O)NC(=O)[C@H](C)NC(=O)[C@H](CCCNC(=N)N)NC(=O)[C@H](CCCCNC(=O)COCCOCCNC(=O)COCCOCCNC(=O)CC[C@H](NC(=O)CCCCCCCCCCCCCCCCCCC(=O)O)C(=O)O)NC(=O)[C@H](CO)NC(=O)[C@H](CCC(=O)O)NC(=O)[C@H](CC(C)C)NC(=O)[C@](C)(Cc1ccccc1)NC(=O)[C@H](CCCCN)NC(=O)[C@H](CO)NC(=O)[C@@H](NC(=O)[C@H](CC(=O)O)NC(=O)[C@H](CO)NC(=O)[C@@H](NC(=O)[C@H](Cc1ccccc1)NC(=O)[C@@H](NC(=O)CNC(=O)[C@H](CCC(N)=O)NC(=O)C(C)(C)NC(=O)[C@@H](N)Cc1c[nH]cn1)[C@@H](C)O)[C@@H](C)O)C(C)C)C(C)C)C(=O)N[C@@H](C)C(=O)NC(C)(C)C(=O)NCC(N)=O [Peptide 516] (H-H[Aib]QGTFTSDVSK[αMeF]LESK([AEEA-AEEA-γGlu-C20 diacid])RAQDFVRWLLA[Aib]G-NH2; N-terminus assumed) | 9.86 | 11.3 | 9.11 | – | – | –
CC[C@H](C)[C@H](NC(=O)[C@H](Cc1ccccc1)NC(=O)[C@H](CCC(=O)O)NC(=O)[C@H](CCCNC(=N)N)NC(=O)[C@H](C)NC(=O)[C@H](C)NC(=O)[C@H](CCCCNC(=O)COCCOCCNC(=O)COCCOCCNC(=O)CC[C@H](NC(=O)CC[C@H](NC(=O)CCCCCCCCCCCCCCCCC(=O)O)C(=O)O)C(=O)O)NC(=O)[C@H](C)NC(=O)[C@H](CCC(=O)O)NC(=O)[C@H](CC(C)C)NC(=O)[C@](C)(Cc1ccccc1)NC(=O)[C@H](CCCCN)NC(=O)[C@H](CO)NC(=O)[C@@H](NC(=O)[C@H](CC(=O)O)NC(=O)[C@H](CO)NC(=O)[C@@H](NC(=O)[C@H](Cc1ccccc1)NC(=O)[C@@H](NC(=O)CNC(=O)[C@H](CCC(N)=O)NC(=O)C(C)(C)NC(=O)[C@@H](N)Cc1c[nH]cn1)[C@@H](C)O)[C@@H](C)O)C(C)C)C(=O)N[C@@H](C)C(=O)N[C@@H](Cc1c[nH]c2ccccc12)C(=O)N[C@@H](CC(C)C)C(=O)N[C@@H](CC(C)C)C(=O)N[C@@H](CCC(=O)O)C(=O)N[C@H](C(N)=O)[C@@H](C)O [Peptide 517] (H-H[Aib]QGTFTSDVSK[αMeF]LEAK([AEEA-AEEA-γGlu-γGlu-C18 diacid])AAREFIAWLLET-NH2) | 9.84 | 10.0 | 9.13 | – | – | –
CC(C)C[C@H](NC(=O)[C@H](Cc1c[nH]c2ccccc12)NC(=O)[C@H](CCC(N)=O)NC(=O)[C@@H](NC(=O)[C@H](Cc1ccccc1)NC(=O)[C@H](CC(=O)O)NC(=O)[C@H](CCCNC(=N)N)NC(=O)[C@H](C)NC(=O)[C@H](CCCNC(=N)N)NC(=O)[C@H](CCCCNC(=O)COCCOCCNC(=O)COCCOCCNC(=O)CC[C@H](NC(=O)CC[C@H](NC(=O)CCCCCCCCCCCCCCCCC(=O)O)C(=O)O)C(=O)O)NC(=O)[C@@H](NC(=O)[C@H](CC(=O)O)NC(=O)[C@H](CC(C)C)NC(=O)[C@](C)(Cc1ccccc1)NC(=O)[C@H](CCCCN)NC(=O)[C@H](CO)NC(=O)[C@@H](NC(=O)[C@H](CC(=O)O)NC(=O)[C@H](CO)NC(=O)[C@@H](NC(=O)[C@H](Cc1ccccc1)NC(=O)[C@@H](NC(=O)CNC(=O)[C@H](CCC(N)=O)NC(=O)C(C)(C)NC(=O)[C@@H](N)Cc1c[nH]cn1)[C@@H](C)O)[C@@H](C)O)C(C)C)[C@@H](C)O)C(C)C)C(=O)N[C@@H](CC(C)C)C(=O)N[C@@H](CCC(=O)O)C(=O)NC(C)(C)C(=O)NCC(=O)O [Peptide 518] | 10.51 | 4.9 | 10.11 | – | – | –
CC(C)C[C@H](NC(=O)[C@H](Cc1c[nH]c2ccccc12)NC(=O)[C@H](CCC(N)=O)NC(=O)[C@@H](NC(=O)[C@H](Cc1ccccc1)NC(=O)[C@H](CC(=O)O)NC(=O)[C@H](CCCNC(=N)N)NC(=O)[C@H](C)NC(=O)[C@H](CCCNC(=N)N)NC(=O)[C@H](CCCCNC(=O)CC[C@H](NC(=O)CC[C@H](NC(=O)COCCOCCNC(=O)COCCOCCNC(=O)CC[C@H](NC(=O)CC[C@H](NC(=O)CCCCCCCCCCCCCCCCC(=O)O)C(=O)O)C(=O)O)C(=O)O)C(=O)O)NC(=O)[C@@H](NC(=O)[C@H](CC(=O)O)NC(=O)[C@H](CC(C)C)NC(=O)[C@](C)(Cc1ccccc1)NC(=O)[C@H](CCCCN)NC(=O)[C@H](CO)NC(=O)[C@@H](NC(=O)[C@H](CC(=O)O)NC(=O)[C@H](CO)NC(=O)[C@@H](NC(=O)[C@H](Cc1ccccc1)NC(=O)[C@@H](NC(=O)CNC(=O)[C@H](CCC(N)=O)NC(=O)C(C)(C)NC(=O)[C@@H](N)Cc1c[nH]cn1)[C@@H](C)O)[C@@H](C)O)C(C)C)[C@@H](C)O)C(C)C)C(=O)N[C@@H](CC(C)C)C(=O)N[C@@H](CCC(=O)O)C(=O)NC(C)(C)C(=O)NCC(=O)O [Peptide 519] | 9.76 | 4.4 | 9.41 | – | – | –
CC(C)C[C@H](NC(=O)[C@H](Cc1c[nH]c2ccccc12)NC(=O)[C@H](CCC(N)=O)NC(=O)[C@@H](NC(=O)[C@H](Cc1ccccc1)NC(=O)[C@H](CC(=O)O)NC(=O)[C@H](CCCNC(=N)N)NC(=O)[C@H](C)NC(=O)[C@H](CCCNC(=N)N)NC(=O)[C@H](CCCCNC(=O)CC[C@H](NC(=O)CC[C@H](NC(=O)COCCOCCNC(=O)COCCOCCNC(=O)CC[C@H](NC(=O)CC[C@H](NC(=O)CCCCCCCCCCCCCCCCCCC(=O)O)C(=O)O)C(=O)O)C(=O)O)C(=O)O)NC(=O)[C@@H](NC(=O)[C@H](CC(=O)O)NC(=O)[C@H](CC(C)C)NC(=O)[C@](C)(Cc1ccccc1)NC(=O)[C@H](CCCCN)NC(=O)[C@H](CO)NC(=O)[C@@H](NC(=O)[C@H](CC(=O)O)NC(=O)[C@H](CO)NC(=O)[C@@H](NC(=O)[C@H](Cc1ccccc1)NC(=O)[C@@H](NC(=O)CNC(=O)[C@H](CCC(N)=O)NC(=O)C(C)(C)NC(=O)[C@@H](N)Cc1c[nH]cn1)[C@@H](C)O)[C@@H](C)O)C(C)C)[C@@H](C)O)C(C)C)C(=O)N[C@@H](CC(C)C)C(=O)N[C@@H](CCC(=O)O)C(=O)NC(C)(C)C(=O)NCC(=O)O [Peptide 520] | 9.27 | 5.9 | 8.79 | – | – | –
CC(C)C[C@H](NC(=O)[C@H](Cc1c[nH]c2ccccc12)NC(=O)[C@H](CCC(N)=O)NC(=O)[C@@H](NC(=O)[C@H](Cc1ccccc1)NC(=O)[C@H](CC(=O)O)NC(=O)[C@H](CCCCNC(=O)COCCOCCNC(=O)COCCOCCNC(=O)CC[C@H](NC(=O)CCCCCCCCCCCCCCCCC(=O)O)C(=O)O)NC(=O)[C@H](C)NC(=O)[C@H](CCCNC(=N)N)NC(=O)[C@H](CCC(=O)O)NC(=O)[C@H](CO)NC(=O)[C@H](CC(=O)O)NC(=O)[C@H](CC(C)C)NC(=O)[C@](C)(Cc1ccccc1)NC(=O)[C@H](CCCCN)NC(=O)[C@H](CO)NC(=O)[C@@H](NC(=O)[C@H](CC(=O)O)NC(=O)[C@H](CO)NC(=O)[C@@H](NC(=O)[C@H](Cc1ccccc1)NC(=O)[C@@H](NC(=O)CNC(=O)[C@H](CCC(N)=O)NC(=O)C(C)(C)NC(=O)[C@@H](N)Cc1c[nH]cn1)[C@@H](C)O)[C@@H](C)O)C(C)C)C(C)C)C(=O)N[C@@H](CCC(=O)O)C(=O)N[C@@H](C)C(=O)NCC(=O)NCC(=O)O [Peptide 521] | – | – | – | 9.17 | 29.5 | 8.00
CC(C)C[C@H](NC(=O)[C@H](Cc1c[nH]c2ccccc12)NC(=O)[C@H](C)NC(=O)[C@@H](NC(=O)[C@H](Cc1ccccc1)NC(=O)[C@H](CC(=O)O)NC(=O)[C@H](CCCCNC(=O)COCCOCCNC(=O)COCCOCCNC(=O)CC[C@H](NC(=O)CCCCCCCCCCCCCCCCC(=O)O)C(=O)O)NC(=O)[C@H](C)NC(=O)[C@H](CCCNC(=N)N)NC(=O)[C@H](CCC(=O)O)NC(=O)[C@H](CO)NC(=O)[C@H](CC(=O)O)NC(=O)[C@H](CC(C)C)NC(=O)[C@](C)(Cc1ccccc1)NC(=O)[C@H](CCCCN)NC(=O)[C@H](CO)NC(=O)[C@@H](NC(=O)[C@H](CC(=O)O)NC(=O)[C@H](CO)NC(=O)[C@@H](NC(=O)[C@H](Cc1ccccc1)NC(=O)[C@@H](NC(=O)CNC(=O)[C@H](CCC(N)=O)NC(=O)C(C)(C)NC(=O)[C@@H](N)Cc1c[nH]cn1)[C@@H](C)O)[C@@H](C)O)C(C)C)C(C)C)C(=O)N[C@@H](CCC(=O)O)C(=O)N[C@@H](C)C(=O)NCC(=O)NCC(=O)O [Peptide 522] | – | – | – | 9.29 | 24.8 | 8.20
CC(C)C[C@H](NC(=O)[C@H](Cc1c[nH]c2ccccc12)NC(=O)[C@H](C)NC(=O)[C@@H](NC(=O)[C@H](Cc1ccccc1)NC(=O)[C@H](CC(=O)O)NC(=O)[C@H](CCCCNC(=O)COCCOCCNC(=O)COCCOCCNC(=O)CC[C@H](NC(=O)CCCCCCCCCCCCCCCCCCC(=O)O)C(=O)O)NC(=O)[C@H](C)NC(=O)[C@H](CCCNC(=N)N)NC(=O)[C@H](CCC(=O)O)NC(=O)[C@H](CO)NC(=O)[C@H](CC(=O)O)NC(=O)[C@H](CC(C)C)NC(=O)[C@](C)(Cc1ccccc1)NC(=O)[C@H](CCCCN)NC(=O)[C@H](CO)NC(=O)[C@@H](NC(=O)[C@H](CC(=O)O)NC(=O)[C@H](CO)NC(=O)[C@@H](NC(=O)[C@H](Cc1ccccc1)NC(=O)[C@@H](NC(=O)CNC(=O)[C@H](CCC(N)=O)NC(=O)C(C)(C)NC(=O)[C@@H](N)Cc1c[nH]cn1)[C@@H](C)O)[C@@H](C)O)C(C)C)C(C)C)C(=O)N[C@@H](CCC(=O)O)C(=O)N[C@@H](C)C(=O)NCC(=O)NCC(=O)O [Peptide 523] | – | – | – | 9.21 | – | < 7.61

— US20250353891A1 (MEDIMMUNE LIMITED, priority 2022, published 2025)
